molecular target: HPK1; experiment: HPK1 Lantha Binding Assay ("Lanth"); conditions: Table B1-1, read-out: HPK1 Ki (μM) (Lanth)
Procedure, shortened: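 Compounds in an 11-point 5-fold series were preincubated 1 h at 23 C with 2 nM kinase plus 2 nM Eu-anti-GST antibody. Then 15 nM Tracer222 was added for another hour, and time-resolved FRET was read at 665/615 nm. Ki values come from a Morrison tight-binding model that uses the tracer Kd.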

Question: `N#CC[C@H]1C[C@@H]1C(=O)Nc1cc2cc(-c3c(Cl)cccc3Cl)nc(N)c2cn1` [Compound 310, (1S,2R)—N-(8-amino-6-(2,6-dichlorophenyl)-2,7-naphthyridin-3-yl)-2-(cyanomethyl)cyclopropanecarboxamide] was tested. Which Ki did it give?
Answer: 0.0675 nM

Question: For `N#CC[C@@H]1C[C@H]1C(=O)Nc1cc2cc(-c3c(Cl)cccc3Cl)nc(N)c2cn1` [Compound 311, (1R,2S)—N-(8-amino-6-(2,6-dichlorophenyl)-2,7-naphthyridin-3-yl)-2-(cyanomethyl)cyclopropanecarboxamide], which Ki is on record?
Answer: 1.15 nM

Question: Which Ki does the source give for `Cc1ccncc1-c1cc2cc(NC(=O)[C@@H]3C[C@@]34CCNC(=O)C4)ncc2c(N)n1` [Compound 312, (1R,3S)—N-[8-amino-6-(4-methylpyridin-3-yl)-2,7-naphthyridin-3-yl]-5-oxo-6-azaspiro[2.5]octane-1-carboxamide] here?
Answer: 5.77 nM

Question: With `Cc1ccncc1-c1cc2cc(NC(=O)[C@H]3C[C@]34CCNC(=O)C4)ncc2c(N)n1` [Compound 313, (1S,3R)—N-[8-amino-6-(4-methylpyridin-3-yl)-2,7-naphthyridin-3-yl]-5-oxo-6-azaspiro[2.5]octane-1-carboxamide] as the compound, how does the Ki read?
Answer: 0.02 nM

Question: Which Ki does the source give for `Cc1ccncc1-c1cc2cc(NC(=O)[C@H]3C[C@@]34CCNC(=O)C4)ncc2c(N)n1` [Compound 314, (1S,3S)—N-[8-amino-6-(4-methylpyridin-3-yl)-2,7-naphthyridin-3-yl]-5-oxo-6-azaspiro[2.5]octane-1-carboxamide] here?
Answer: 13.1 nM

Question: `Cc1ccncc1-c1cc2cc(NC(=O)[C@@H]3C[C@]34CCNC(=O)C4)ncc2c(N)n1` [Compound 315, (1R,3R)—N-[8-amino-6-(4-methylpyridin-3-yl)-2,7-naphthyridin-3-yl]-5-oxo-6-azaspiro[2.5]octane-1-carboxamide] was tested. Which Ki did it give?
Answer: 12.2 nM

Question: How did the Ki turn out when `Cc1ccncc1-c1nc(N)c2cnc(NC(=O)[C@@H]3C[C@H]3CC#N)cc2c1C1CC1` [Compound 316, (1R,2S)—N-(8-amino-5-cyclopropyl-6-(4-methylpyridin-3-yl)-2,7-naphthyridin-3-yl)-2-(cyanomethyl)cyclopropanecarboxamide] was run?
Answer: 0.522 nM

Question: `Cc1ccncc1-c1nc(N)c2cnc(NC(=O)[C@H]3C[C@@H]3CC#N)cc2c1C1CC1` [Compound 317, (1S,2R)—N-(8-amino-5-cyclopropyl-6-(4-methylpyridin-3-yl)-2,7-naphthyridin-3-yl)-2-(cyanomethyl)cyclopropanecarboxamide] was tested. Which Ki did it give?
Answer: 0.02 nM

Question: With `Cc1ccnc(-c2ccccc2)c1-c1cc2cc(NC(=O)[C@H]3C[C@@H]3c3cnn(C)c3)ncc2c(N)n1` [Compound 318, (1S,2S)—N-(8-amino-6-(4-methyl-2-phenylpyridin-3-yl)-2,7-naphthyridin-3-yl)-2-(1-methyl-1H-pyrazol-4-yl)cyclopropanecarboxamide] as the compound, how does the Ki read?
Answer: 0.032 nM

Question: With `Cc1ccnc(-c2ccccc2)c1-c1cc2cc(NC(=O)[C@@H]3C[C@H]3c3cnn(C)c3)ncc2c(N)n1` [Compound 319, (1R,2R)—N-(8-amino-6-(4-methyl-2-phenylpyridin-3-yl)-2,7-naphthyridin-3-yl)-2-(1-methyl-1H-pyrazol-4-yl)cyclopropanecarboxamide] as the compound, how does the Ki read?
Answer: 0.02 nM

Question: With `Cc1ccncc1-c1cc2cc(NC(=O)[C@H]3CC[C@@H]3C)ncc2c(N)n1` [Compound 320, (1S,2S)—N-(8-amino-6-(4-methylpyridin-3-yl)-2,7-naphthyridin-3-yl)-2-methylcyclobutanecarboxamide] as the compound, how does the Ki read?
Answer: 7.82 nM

Question: How did the Ki turn out when `Cc1ccncc1-c1cc2cc(NC(=O)[C@H]3CC[C@H]3C)ncc2c(N)n1` [Compound 321, (1S,2R)—N-(8-amino-6-(4-methylpyridin-3-yl)-2,7-naphthyridin-3-yl)-2-methylcyclobutanecarboxamide] was run?
Answer: 57.4 nM

Question: How did the Ki turn out when `Cc1ccncc1-c1cc2cc(NC(=O)[C@@H]3CC[C@H]3C)ncc2c(N)n1` [Compound 322, (1R,2R)—N-(8-amino-6-(4-methylpyridin-3-yl)-2,7-naphthyridin-3-yl)-2-methylcyclobutanecarboxamide] was run?
Answer: 14.8 nM

Question: Which Ki does the source give for `Cc1ccncc1-c1cc2cc(NC(=O)[C@@H]3CC[C@@H]3C)ncc2c(N)n1` [Compound 323, (1R,2S)—N-(8-amino-6-(4-methylpyridin-3-yl)-2,7-naphthyridin-3-yl)-2-methylcyclobutanecarboxamide] here?
Answer: 76.3 nM

Question: For `Cc1ccncc1-c1cc2cc(NC(=O)[C@H]3C[C@@H]3C3CCOCC3)ncc2c(N)n1` [Compound 324, (1S,2R)—N-[8-amino-6-(4-methylpyridin-3-yl)-2,7-naphthyridin-3-yl]-2-(oxan-4-yl)cyclopropane-1-carboxamide], which Ki is on record?
Answer: 0.48 nM

Question: `Cc1ccncc1-c1cc2cc(NC(=O)[C@@H]3C[C@H]3C3CCOCC3)ncc2c(N)n1` [Compound 325, (1R,2S)—N-[8-amino-6-(4-methylpyridin-3-yl)-2,7-naphthyridin-3-yl]-2-(oxan-4-yl)cyclopropane-1-carboxamide] was tested. Which Ki did it give?
Answer: 3.43 nM

Question: For `Cc1ccncc1-c1cc2cc(NC(=O)[C@@H]3[C@@H](C)[C@H]3c3cnn(C)c3)ncc2c(N)n1` [Compound 326, (1R,2S,3R)—N-[8-amino-6-(4-methylpyridin-3-yl)-2,7-naphthyridin-3-yl]-2-methyl-3-(1-methyl-1H-pyrazol-4-yl)cyclopropane-1-carboxamide], which Ki is on record?
Answer: 0.074 nM

Question: Which Ki does the source give for `Cc1ccncc1-c1cc2cc(NC(=O)[C@H]3[C@H](C)[C@@H]3c3cnn(C)c3)ncc2c(N)n1` [Compound 327, (1S,2R,3S)—N-[8-amino-6-(4-methylpyridin-3-yl)-2,7-naphthyridin-3-yl]-2-methyl-3-(1-methyl-1H-pyrazol-4-yl)cyclopropane-1-carboxamide] here?
Answer: 1.43 nM

Question: Which Ki does the source give for `Cc1ccncc1-c1cc2cc(NC(=O)[C@@H]3[C@H](C)[C@H]3c3cnn(C)c3)ncc2c(N)n1` [Compound 329, (1R,2R,3R)—N-[8-amino-6-(4-methylpyridin-3-yl)-2,7-naphthyridin-3-yl]-2-methyl-3-(1-methyl-1H-pyrazol-4-yl)cyclopropane-1-carboxamide] here?
Answer: 2.65 nM

Question: Which Ki does the source give for `COCCn1cc([C@@H]2C[C@H]2C(=O)Nc2cc3cc(-c4cnccc4C)nc(N)c3cn2)cn1` [Compound 330, (1R,2R)—N-(8-amino-6-(4-methylpyridin-3-yl)-2,7-naphthyridin-3-yl)-2-(1-(2-methoxyethyl)-1H-pyrazol-4-yl)cyclopropanecarboxamide] here?
Answer: < 0.02 nM

Question: With `COCCn1cc([C@H]2C[C@@H]2C(=O)Nc2cc3cc(-c4cnccc4C)nc(N)c3cn2)cn1` [Compound 331, (1S,2S)—N-(8-amino-6-(4-methylpyridin-3-yl)-2,7-naphthyridin-3-yl)-2-(1-(2-methoxyethyl)-1H-pyrazol-4-yl)cyclopropanecarboxamide] as the compound, how does the Ki read?
Answer: 1.12 nM

Question: Which Ki does the source give for `Cn1cc([C@@H]2C[C@H]2C(=O)Nc2cc3c(Cl)c(-c4cnccc4CCO)nc(N)c3cn2)cn1` [Compound 333, (1R,2R)—N-(8-amino-5-chloro-6-(4-(2-hydroxyethyl)pyridin-3-yl)-2,7-naphthyridin-3-yl)-2-(1-methyl-1H-pyrazol-4-yl)cyclopropanecarboxamide] here?
Answer: 0.432 nM

Question: How did the Ki turn out when `Cc1cc(-c2ccccc2)ncc1-c1cc2cc(NC(=O)[C@@H]3C[C@H]3CC#N)ncc2c(N)n1` [Compound 334, (1R,2S)—N-[8-amino-6-(4-methyl-6-phenylpyridin-3-yl)-2,7-naphthyridin-3-yl]-2-(cyanomethyl)cyclopropane-1-carboxamide] was run?
Answer: 20.4 nM

Question: With `Cc1cc(-c2ccccc2)ncc1-c1cc2cc(NC(=O)[C@H]3C[C@@H]3CC#N)ncc2c(N)n1` [Compound 335, (1S,2R)—N-[8-amino-6-(4-methyl-6-phenylpyridin-3-yl)-2,7-naphthyridin-3-yl]-2-(cyanomethyl)cyclopropane-1-carboxamide] as the compound, how does the Ki read?
Answer: 4.41 nM

Question: Which Ki does the source give for `Cc1ccncc1-c1cc2cc(NCC(F)F)ncc2c(N)n1` [Compound 338, N6-(2,2-difluoroethyl)-3-(4-methylpyridin-3-yl)-2,7-naphthyridine-1,6-diamine] here?
Answer: 345 nM

same assay, conditions: Table B1-2, read-out: HPK1 Ki, L = Lanth

Question: For `Cc1cccc(F)c1-c1cc2cc(NC(=O)[C@@H]3[C@@H](C)[C@H]3c3cnn(C)c3)ncc2c(N)n1` [Compound 354, (1R,2S,3R)—N-[8-amino-6-(2-fluoro-6-methylphenyl)-2,7-naphthyridin-3-yl]-2-methyl-3-(1-methyl-1H-pyrazol-4-yl)cyclopropane-1-carboxamide], which Ki is on record?
Answer: 0.083 nM

Question: How did the Ki turn out when `Cc1cccc(F)c1-c1cc2cc(NC(=O)[C@H]3[C@@H](C)[C@@H]3c3cnn(C)c3)ncc2c(N)n1` [Compound 355, (1S,2S,3S)—N-[8-amino-6-(2-fluoro-6-methylphenyl)-2,7-naphthyridin-3-yl]-2-methyl-3-(1-methyl-1H-pyrazol-4-yl)cyclopropane-1-carboxamide] was run?
Answer: 1.8 nM

Question: `Cc1cccc(F)c1-c1cc2cc(NC(=O)[C@H]3[C@H](C)[C@@H]3c3cnn(C)c3)ncc2c(N)n1` [Compound 357, (1S,2R,3S)—N-[8-amino-6-(2-fluoro-6-methylphenyl)-2,7-naphthyridin-3-yl]-2-methyl-3-(1-methyl-1H-pyrazol-4-yl)cyclopropane-1-carboxamide] was tested. Which Ki did it give?
Answer: 2.7 nM

Question: With `Cc1ccncc1-c1cc2cc(NC(=O)[C@H]3[C@@H]4CC(NS(C)(=O)=O)C[C@@H]43)ncc2c(N)n1` (stereo partly shown) [Compound 412, N-(8-amino-6-(4-methylpyridin-3-yl)-2,7-naphthyridin-3-yl)-3-(methylsulfonamido)bicyclo[3.1.0]hexane-6-carboxamide] as the compound, how does the Ki read?
Answer: 96 nM

Question: `CC1=CN(C)C(=O)Cc2nc(Nc3cc4cc(-c5cnccc5C)nc(N)c4cn3)ccc21` [Compound 418, 2-((8-amino-6-(4-methylpyridin-3-yl)-2,7-naphthyridin-3-yl)amino)-5,7-dimethyl-7,9-dihydro-8H-pyrido[2,3-d]azepin-8-one] was tested. Which Ki did it give?
Answer: 1.4 nM

Question: How did the Ki turn out when `Cc1cccc(F)c1-c1cc2cc(Nc3cc4n(n3)CC(=O)N(C)CC4)ncc2c(N)n1` [Compound 426, 2-((8-amino-6-(2-fluoro-6-methylphenyl)-2,7-naphthyridin-3-yl)amino)-6-methyl-5,6-dihydro-4H-pyrazolo[1,5-d][1,4]diazepin-7(8H)-one] was run?
Answer: 0.02 nM

Reference: US11034692B1 (Genentech, Inc., priority 2017, dated 2021)
